Measurements taken from patent publication US20250018014A1, “METHOD FOR TREATING AND/OR PREVENTING REGNASE-1-RELATED DISEASE” (OSAKA UNIVERSITY, priority 2018, published 2025).
Where two headings read alike, the source gives them in different places. Residues, ends and D or L forms follow the SMILES beside them.

Key:
[1] = target: T1, FL_Reg1 (full-length human Regnase-1) phosphorylation by TBK1 (Homo sapiens, UniProt Q5D1E8); experiment: Regnase-1 phosphorylation inhibition by compounds (AlphaScreen), TBK1, full-length Regnase-1; type: biochemical
T1 construct: made in house; host or cells: Expi293 cells
T1 sequence (Q5D1E8 1-599): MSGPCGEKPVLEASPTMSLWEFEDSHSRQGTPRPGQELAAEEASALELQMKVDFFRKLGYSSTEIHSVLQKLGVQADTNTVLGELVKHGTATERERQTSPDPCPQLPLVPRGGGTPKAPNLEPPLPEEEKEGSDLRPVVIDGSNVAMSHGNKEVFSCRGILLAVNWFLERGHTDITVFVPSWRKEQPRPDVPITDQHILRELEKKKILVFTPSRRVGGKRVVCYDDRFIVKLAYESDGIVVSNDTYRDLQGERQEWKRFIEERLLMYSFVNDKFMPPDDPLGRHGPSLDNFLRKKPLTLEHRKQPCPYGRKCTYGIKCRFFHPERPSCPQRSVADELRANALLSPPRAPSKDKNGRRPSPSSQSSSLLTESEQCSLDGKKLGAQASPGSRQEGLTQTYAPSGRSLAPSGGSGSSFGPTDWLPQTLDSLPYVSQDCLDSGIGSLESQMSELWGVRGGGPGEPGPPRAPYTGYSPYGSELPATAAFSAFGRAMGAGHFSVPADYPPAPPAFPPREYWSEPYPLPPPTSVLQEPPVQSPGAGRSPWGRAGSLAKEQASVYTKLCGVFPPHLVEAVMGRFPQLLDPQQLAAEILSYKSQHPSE
Procedure, shortened: (§1)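 FLAG/BirA-tagged human Regnase-1 constructs (full-length, 1–546 or 301–599), expressed in Expi293 cells, were used at 2 nM with compound and phosphorylated by IKKβ or TBK1 with 10 μM ATP, DTT, vanadate and MnCl2 for 2 h at room temperature. Phospho-Regnase-1 was read by AlphaScreen; IC50 came from % inhibition curves normalised to DMSO and Regnase-1-alone signals.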

[2] = target: T2, binding between IKKβ and full-length Regnase-1 (FL_Reg1) (Homo sapiens, UniProt Q5D1E8); experiment: Inhibition of kinase-Regnase-1 binding by the compounds (AlphaScreen), IKKβ
T2 construct: made in house; host or cells: Expi293 cells
T2 sequence (Q5D1E8 1-599): T1 sequence (Q5D1E8 1-599)
Procedure, shortened: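 Read-out was AlphaScreen luminescence using anti-FLAG acceptor and glutathione donor beads, with Regnase-1 alone set as 100% and DMSO as 0% inhibition to fit IC50. Compound was premixed with 2.5 nM full-length human Regnase-1 (Expi293-expressed, FLAG/BirA-tagged). 2.5 nM TBK1 or IKKβ was then added for 2 h at room temperature.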

[3] = target: T3, FL_Reg1 (full-length human Regnase-1) phosphorylation by IKKβ (Homo sapiens, UniProt Q5D1E8); experiment: Regnase-1 phosphorylation inhibition by compounds (AlphaScreen), IKKβ, full-length Regnase-1; type: biochemical
T3 construct: made in house; host or cells: Expi293 cells
T3 sequence (Q5D1E8 1-599): T1 sequence (Q5D1E8 1-599)
Procedure, shortened: as §1

[4] = Table 13, phosphorylation by TBK1, read-out: Phosphorylation inhibition FL_Reg1, 50% inhibition concentration (TBK1)
[5] = Table 14, binding between IKKβ and Regnase-1, read-out: Binding inhibition FL_Reg1, 50% inhibition concentration (IKKβ)
[6] = Table 14, phosphorylation by IKKβ, read-out: Phosphorylation inhibition FL_Reg1, 50% inhibition concentration (IKKβ)
[7] = Table 11, 2 nM Regnase-1, AlphaScreen, read-out: 50% inhibition concentration, Regnase-1 phosphorylation, FL_Reg1, TBK1
[8] = Table 12, 2.5 nM Regnase-1, 2.5 nM IKKβ, AlphaScreen, read-out: 50% inhibition concentration, binding between Regnase-1 and IKKβ, FL_Reg1
[9] = Table 11, 2 nM Regnase-1, AlphaScreen, read-out: 50% inhibition concentration, Regnase-1 phosphorylation, FL_Reg1, IKKβ

Row | SMILES | IC50 [1, 4] | IC50 [2, 5] | IC50 [3, 6] | IC50 [1, 7] | IC50 [2, 8] | IC50 [3, 9]
1 | CC[C@H](C)[C@@H]1NC(=O)[C@H](CCCCN)NC(=O)[C@H](Cc2ccc(O)cc2)NC(=O)[C@H](Cc2c[nH]c3ccccc23)NC(=O)[C@H](CO)NC(=O)[C@H](CC(N)=O)NC(=O)[C@H](C)N(C)C(=O)C[C@@H](C(=O)N2CCCC2)NC(=O)[C@H](CC(C)C)NC(=O)CNC(=O)[C@H](Cc2c[nH]c3ccccc23)NC1=O [PP21] (HELM PEPTIDE1{[meA].N.S.W.Y.K.I.W.G.L.D.[C1CCN([*:1])C1]}$PEPTIDE1,PEPTIDE1,1:R1-11:R3$$$V2.0) | 13.5 µM | 20.7 µM | 19.6 µM |  |  | 
2 | CC[C@H](C)[C@@H]1NC(=O)[C@H](CC(N)=O)NC(=O)[C@H](Cc2ccc(O)cc2)NC(=O)[C@H](Cc2c[nH]c3ccccc23)NC(=O)[C@H](CO)NC(=O)[C@H](CC(N)=O)NC(=O)[C@H](C)NC(=O)[C@H](Cc2ccc(O)cc2)NC(=O)CNC(=O)[C@H](C)N(C)C(=O)C[C@@H](C(=O)N2CCCC2)NC(=O)[C@H](Cc2c[nH]c3ccccc23)NC1=O [PP2] (HELM PEPTIDE1{[meA].G.Y.A.N.S.W.Y.N.I.W.D.[C1CCN([*:1])C1]}$PEPTIDE1,PEPTIDE1,1:R1-12:R3$$$V2.0) |  |  |  | 21.7 µM | 35.8 µM | 16.6 µM
3 | CC[C@H](C)[C@@H]1NC(=O)[C@H](CC(=O)O)NC(=O)[C@H](C)N(C)C(=O)C[C@@H](C(=O)N2CCCC2)NC(=O)[C@H](Cc2ccc(O)cc2)NC(=O)[C@H](CC(=O)O)NC(=O)[C@H](Cc2c[nH]c3ccccc23)NC(=O)[C@H](Cc2ccc(O)cc2)NC(=O)[C@H](CC(=O)O)NC(=O)[C@H](Cc2ccccc2)NC(=O)[C@H](Cc2c[nH]c3ccccc23)NC1=O [PP18] (HELM PEPTIDE1{[meA].D.I.W.F.D.Y.W.D.Y.D.[C1CCN([*:1])C1]}$PEPTIDE1,PEPTIDE1,1:R1-11:R3$$$V2.0) | 0.6 µM | < 0.06 µM | 0.4 µM |  |  | 
4 | CC[C@H](C)[C@@H]1NC(=O)[C@H](CC(N)=O)NC(=O)[C@H](Cc2ccc(O)cc2)NC(=O)[C@H](Cc2c[nH]c3ccccc23)NC(=O)[C@H](C)NC(=O)[C@H](CC(N)=O)NC(=O)[C@H](CO)NC(=O)[C@H](Cc2c[nH]cn2)NC(=O)[C@H](C)N(C)C(=O)C[C@@H](C(=O)N2CCCC2)NC(=O)[C@H](Cc2c[nH]c3ccccc23)NC1=O [PP5] (HELM PEPTIDE1{[meA].H.S.N.A.W.Y.N.I.W.D.[C1CCN([*:1])C1]}$PEPTIDE1,PEPTIDE1,1:R1-11:R3$$$V2.0) |  |  |  | 24.2 µM | 24 µM | 23.6 µM
5 | CC[C@H](C)[C@@H]1NC(=O)[C@H](CCCNC(=N)N)NC(=O)[C@H](Cc2ccc(O)cc2)NC(=O)[C@H](Cc2c[nH]c3ccccc23)NC(=O)[C@H](CO)NC(=O)[C@H](CC(N)=O)NC(=O)[C@H](C)N(C)C(=O)C[C@@H](C(=O)N2CCCC2)NC(=O)[C@H](CC(C)C)NC(=O)CNC(=O)[C@H](Cc2c[nH]c3ccccc23)NC1=O [PP22] (HELM PEPTIDE1{[meA].N.S.W.Y.R.I.W.G.L.D.[C1CCN([*:1])C1]}$PEPTIDE1,PEPTIDE1,1:R1-11:R3$$$V2.0) | 24.3 µM | 26.8 µM | 15 µM |  |  | 
6 | CC[C@H](C)[C@@H]1NC(=O)[C@H](Cc2c[nH]c3ccccc23)NC(=O)[C@@H](Cc2ccccc2)NC(=O)[C@H](CCCCN)NC(=O)[C@H](C)N(C)C(=O)C[C@@H](C(=O)N2CCCC2)NC(=O)[C@H](CCC(=O)O)NC(=O)[C@H](Cc2ccccc2)NC(=O)[C@H](CO)NC(=O)[C@H](Cc2c[nH]cn2)NC(=O)[C@H](Cc2c[nH]cn2)NC1=O [PP20] (HELM PEPTIDE1{[meA].K.[dF].W.I.H.H.S.F.E.D.[C1CCN([*:1])C1]}$PEPTIDE1,PEPTIDE1,1:R1-11:R3$$$V2.0) | 38.5 µM | > 62.1 µM | 24.7 µM |  |  | 
7 | CC[C@H](C)[C@@H]1NC(=O)[C@H](CO)NC(=O)[C@H](CCCNC(=N)N)NC(=O)[C@H](Cc2ccc(O)cc2)NC(=O)[C@H](Cc2ccc(O)cc2)NC(=O)[C@H](Cc2c[nH]c3ccccc23)NC(=O)[C@H](CO)NC(=O)[C@H](CCC(N)=O)NC(=O)[C@H](Cc2ccc(O)cc2)NC(=O)[C@H](CC(N)=O)NC(=O)[C@H](C)N(C)C(=O)C[C@@H](C(=O)N2CCCC2)NC(=O)[C@H](Cc2c[nH]c3ccccc23)NC1=O [PP10] (HELM PEPTIDE1{[meA].N.Y.Q.S.W.Y.Y.R.S.I.W.D.[C1CCN([*:1])C1]}$PEPTIDE1,PEPTIDE1,1:R1-13:R3$$$V2.0) | 0.2 µM | 11.4 µM | 0.5 µM |  |  | 
8 | CC[C@H](C)[C@@H]1NC(=O)[C@H](Cc2c[nH]c3ccccc23)NC(=O)[C@H](CCCNC(=N)N)NC(=O)[C@H](Cc2ccccc2)NC(=O)[C@H](CCC(N)=O)NC(=O)[C@H](C)NC(=O)[C@H](Cc2ccccc2)NC(=O)[C@H](CCCCN)NC(=O)[C@H](C)N(C)C(=O)C[C@@H](C(=O)N2CCCC2)NC(=O)[C@@H]2CCCN2C(=O)[C@H](Cc2ccc(O)cc2)NC1=O [PP11] (HELM PEPTIDE1{[meA].K.F.A.Q.F.R.W.I.Y.P.D.[C1CCN([*:1])C1]}$PEPTIDE1,PEPTIDE1,1:R1-12:R3$$$V2.0) | 29.1 µM | > 62.1 µM | 22.3 µM |  |  | 
9 | CC[C@H](C)[C@@H]1NC(=O)[C@H](CCCCN)NC(=O)[C@H](Cc2ccc(O)cc2)NC(=O)[C@H](Cc2c[nH]c3ccccc23)NC(=O)[C@H](CO)NC(=O)[C@H](CO)NC(=O)[C@H]([C@@H](C)O)NC(=O)[C@@H]2CCCN2C(=O)[C@@H](C)N(C)C(=O)C[C@@H](C(=O)N2CCCC2)NC(=O)[C@H](Cc2c[nH]c3ccccc23)NC1=O [PP23] (HELM PEPTIDE1{[C[C@H](C(=O)[*:2])N(C)[*:1]].P.T.S.S.W.Y.K.I.W.D.[C1CCN([*:1])C1]}$PEPTIDE1,PEPTIDE1,1:R1-11:R3$$$V2.0) | 18.8 µM | 41.3 µM | 25.6 µM |  |  | 
10 | CC[C@H](C)[C@@H]1NC(=O)[C@H](CC(N)=O)NC(=O)[C@H]([C@@H](C)CC)NC(=O)[C@H](Cc2ccc(O)cc2)NC(=O)[C@H](Cc2c[nH]c3ccccc23)NC(=O)[C@H](CO)NC(=O)[C@H](CC(N)=O)NC(=O)[C@H](C)N(C)C(=O)C[C@@H](C(=O)N2CCCC2)NC(=O)[C@H](Cc2c[nH]cn2)NC(=O)CNC(=O)[C@H](Cc2c[nH]c3ccccc23)NC1=O [PP15] (HELM PEPTIDE1{[meA].N.S.W.Y.I.N.I.W.G.H.D.[C1CCN([*:1])C1]}$PEPTIDE1,PEPTIDE1,1:R1-12:R3$$$V2.0) | 8.5 µM | 33.7 µM | 5.6 µM |  |  | 
11 | CC[C@H](C)[C@@H]1NC(=O)[C@H](Cc2ccc(O)cc2)NC(=O)[C@H](C)N(C)C(=O)C[C@@H](C(=O)N2CCCC2)NC(=O)[C@H](CC(C)C)NC(=O)[C@H](CC(=O)O)NC(=O)CNC(=O)[C@H](Cc2ccccc2)NC(=O)[C@H](Cc2ccccc2)NC(=O)[C@H](CC(=O)O)NC(=O)[C@H](Cc2c[nH]c3ccccc23)NC1=O [PP4] (HELM PEPTIDE1{[meA].Y.I.W.D.F.F.G.D.L.D.[C1CCN([*:1])C1]}$PEPTIDE1,PEPTIDE1,1:R1-11:R3$$$V2.0) |  |  |  | 61.9 µM | 47.7 µM | 19.5 µM
12 | CC[C@H](C)[C@@H]1NC(=O)[C@H](CC(N)=O)NC(=O)[C@H](Cc2ccc(O)cc2)NC(=O)[C@H](Cc2c[nH]c3ccccc23)NC(=O)[C@H](CO)NC(=O)[C@H](CC(N)=O)NC(=O)[C@H](CO)NC(=O)[C@H](Cc2ccccc2)NC(=O)[C@H](CC(N)=O)NC(=O)[C@H](C)N(C)C(=O)C[C@@H](C(=O)N2CCCC2)NC(=O)[C@H](Cc2c[nH]c3ccccc23)NC1=O [PP16] (HELM PEPTIDE1{[meA].N.F.S.N.S.W.Y.N.I.W.D.[C1CCN([*:1])C1]}$PEPTIDE1,PEPTIDE1,1:R1-12:R3$$$V2.0) | 52.4 µM | > 62.1 µM | 20.6 µM |  |  | 
